Data as given in patent publication US10858360B2, “Tricyclic gyrase inhibitors” (priority 2011, dated 2020).
≈ marks a conversion by molar mass, not a printed value.

Columns and labels:
[1] = test system: S. aureus ATCC 13709; assay: MIC, S. aureus ATCC 13709 (Alamar Blue broth microdilution); type: cell-based; details: Alamar Blue read after overnight incubation at 35° C.; for MIC: Staphylococcus aureus, ATCC13709, S. aureus; for MIC Sa: S. aureus
[2] = test system: E. coli ATCC 25922; assay: MIC, E. coli ATCC 25922; type: cell-based; details: Alamar Blue read after overnight incubation at 35° C.; for MIC: Escherichia coli, ATCC25922, E. coli; for MIC Ec: E. coli

Structure (SMILES) | MIC [1] [mg/L] | MIC [2] [mg/L] | MIC Sa [1] [mg/L] | MIC Ec [2] [mg/L]
CNc1cc(F)cc2c1[nH]c1nc(Oc3cnc(N4CC(O)C4)nc3)nc(N3C[C@H](N)C4(CC4)C3)c12 [4.299] | ≤ 0.5 | 4 (≈ 8.14 µM) |  | 
CNc1cc(F)cc2c1[nH]c1nc(Oc3cnc(C(C)(C)C)nc3)nc(N3CC[C@@H](N)C3)c12 [4.319] | ≤ 0.5 | ≤ 0.5 |  | 
CNc1cc(F)cc2c1[nH]c1nc(Oc3cncc(Cl)c3)nc(N3CC4C(N)C4C3)c12 (stereo not shown) [4.272] | ≤ 0.5 | ≤ 0.5 |  | 
COc1cccc2c1[nH]c1nc(Oc3cncnc3)nc(N3CCC(N)C3)c12 (stereo not shown) [2.10] |  |  | 2 (≈ 5.3 µM) | 32 (≈ 84.8 µM)
CNc1cc(F)cc2c1[nH]c1nc(Sc3cnc4ccc[n+]([O-])c4c3)nc(N3CC4C(N)C4C3)c12 (stereo not shown) [1.50] | ≤ 0.5 | ≤ 0.5 |  | 
CCNC(=O)c1cncc(Oc2nc(NCC)c3c(n2)[nH]c2c(NC)cc(F)cc23)c1 [4.384] |  |  | 1 (≈ 2.36 µM) | >16
CNc1cc(F)cc2c1[nH]c1nc(Oc3cnc(C)nc3)nc(N3CCCC(N)CC3)c12 (stereo not shown) [4.071] | ≤ 0.5 | 2 (≈ 4.58 µM) |  | 
Cc1ncc(Oc2nc(N3CC4CC3C[C@@H]4N)c3c(n2)[nH]c2c(N)cc(F)cc23)cn1 (stereo partly shown) [2.160] | 8 (≈ 19 µM) | 16 (≈ 38.1 µM) |  | 
CNc1cc(F)cc2c1[nH]c1nc(Oc3cnc(C)nc3)nc(N3CC4(CCC4N)C3)c12 (stereo not shown) [4.100] |  |  | ≤0.5 | ≤0.5
CNc1cc(F)cc2c1[nH]c1nc(Oc3cncnc3)nc(N3CC4C(N)C4C3)c12 (stereo not shown) [4.010] |  |  | ≤0.5 | ≤0.5
CNc1cc(F)cc2c1[nH]c1nc(Oc3cncc(-c4nnnn4C)c3)nc(N3CC4CNC(C4)C3)c12 (stereo not shown) [4.170] | 2 (≈ 3.99 µM) | > 16 |  | 
CNc1cc(F)cc2c1[nH]c1nc(Oc3cnc(N)nc3)nc(N3CCC(N)C3)c12 (stereo not shown) [4.179] |  |  | ≤0.5 | 1 (≈ 2.44 µM)
CNc1cc(F)cc2c1[nH]c1nc(Oc3cnc4c(c3)OCCO4)nc(N3C[C@H](N)C4(CC4)C3)c12 [4.295] | ≤ 0.5 | ≤ 0.5 |  | 
CNc1cc(F)cc2c1[nH]c1nc(Oc3cnc(N(C)C)nc3)nc(N3C[C@H](N)C4(CC4)C3)c12 [4.209] | ≤ 0.5 | ≤ 0.5 |  | 
CNc1cc(F)cc2c1[nH]c1nc(Oc3cnc4[nH]cnc4c3)nc(N3CC4CCNC4C3)c12 (stereo not shown) [4.312] | 16 (≈ 34.8 µM) | > 16 |  | 
CNc1cccc2c1[nH]c1nc(Sc3cnc4ccc[n+]([O-])c4c3)nc(N3CC(CNC(=O)c4cn(C)nc4C(F)(F)F)C3)c12 [1.21] | ≤ 0.5 | > 64 |  | 

Structure (SMILES) | MIC [1] [mg/L] | MIC [2] [mg/L] | MIC Sa [1] [mg/L] | MIC Ec [2] [mg/L]
CNc1cc(F)cc2c1[nH]c1nc(Oc3cnc4ccoc4c3)nc(N3CC(N)C4(CC4)C3)c12 (stereo not shown) [4.292] |  |  | ≤0.5 | ≤0.5
CNc1cc(F)cc2c1[nH]c1nc(Oc3cnc(C#N)c(C)c3)nc(N3CC4CC(N)C4C3)c12 (stereo not shown) [4.323] |  |  | ≤0.5 | 1 (≈ 2.18 µM)
CNc1cccc2c1[nH]c1nc(Oc3cnc(C)nc3)nc(N3CC4C(C3)C4NC(=O)CN)c12 (stereo not shown) [3.18] | 4 (≈ 8.7 µM) | > 16 |  | 
CNc1cc(F)cc2c1[nH]c1nc(Oc3cncc(OC)c3)nc(N3CCC4CNC4C3)c12 (stereo not shown) [4.166] | ≤ 0.5 | 2 (≈ 4.45 µM) |  | 
CNc1cccc2c1[nH]c1nc(Oc3cncc(C(=O)O)c3)nc(N3CC4C(N)C4C3)c12 (stereo not shown) [3.20] | > 8 | > 8 |  | 
CNc1cc(F)cc2c1[nH]c1nc(Oc3cnc(NC4CC4)nc3)nc(N3CC4C(N)C4C3)c12 (stereo not shown) [4.223] | ≤ 0.5 | ≤ 0.5 |  | 
CNc1cc(F)cc2c1[nH]c1nc(Oc3cnc(C4CC4)nc3)nc(N3CC4CCC(CN)C4C3)c12 (stereo not shown) [4.253] | ≤ 0.5 | ≤ 0.5 |  | 
CNc1cc(F)cc2c1[nH]c1nc(Oc3cnc(CC(=O)NOC)nc3)nc(N3CC(N)C4(CC4)C3)c12 (stereo not shown) [4.371] |  |  | 1 (≈ 1.97 µM) | 16 (≈ 31.5 µM)
CNc1nccc2c1[nH]c1nc(Sc3cnc4nccnc4c3)nc(N3CC[C@@H](N)C3)c12 [7.01] | 8 (≈ 18 µM) | > 64 |  | 
CNc1cc(F)cc2c1[nH]c1nc(Oc3cnc(C4CCC4)nc3)nc(N3C[C@H](N)C4(CC4)C3)c12 [4.287] | ≤ 0.5 | ≤ 0.5 |  | 
CNc1cccc2c1[nH]c1nc(Oc3cncc(F)c3)nc(N3CCC4(CNC4)C3)c12 [3.66] | 8 (≈ 19.1 µM) | > 32 |  | 
CNc1cc(F)cc2c1[nH]c1nc(Oc3cnc(CO)nc3)nc(N3CC(N)C4(CC4)C3)c12 (stereo not shown) [4.387] |  |  | ≤0.5 | ≤0.5
CNc1cccc2c1[nH]c1nc(Oc3cncc(C#N)c3)nc(N3CC(N)C4(CC4)C3)c12 (stereo not shown) [3.43] | ≤ 0.5 | 1 (≈ 2.34 µM) |  | 
CNc1cc(F)cc2c1[nH]c1nc(Oc3cnc(C(C)O)nc3)nc(C3CC4(CC[C@H]4N)C3)c12 (stereo partly shown) [4.430] | ≤ 0.5 | ≤ 0.5 |  | 
CNc1cc(F)cc2c1[nH]c1nc(Oc3cnc(N4CCOCC4)nc3)nc(N3CC4C(N)C4C3)c12 (stereo not shown) [4.211] |  |  | 16 (≈ 32.6 µM) | >16
CNc1cc(F)cc2c1[nH]c1nc(Oc3cnc(C)nc3)nc(N3CCC(C4(N)CC4)C3)c12 (stereo not shown) [4.083] |  |  | ≤0.5 | ≤0.5
